# Reference: patent US20260297042A1, “BIARYLAMIDE DERIVATIVES AND THEIR USE AS PKMYT1 INHIBITORS” (CANCER RESEARCH TECHNOLOGY LIMITED, priority 2023, published 2026)
# Tests used:
# Human PKMYT1 = molecular target: T1, Human PKMYT1 (Homo sapiens, UniProt Q99640); assay: PKMYT1 biochemical ADP-Glo enzymatic assay; details: ADP-Glo
# T1 construct: Human PKMYT1 75-362 was cloned as a TEV cleavable 6xHis fusion; 6xHis (TEV cleavable) (cleaved yes); made in house; host or cells: bacterial cells
# T1 sequence (Q99640 75-362): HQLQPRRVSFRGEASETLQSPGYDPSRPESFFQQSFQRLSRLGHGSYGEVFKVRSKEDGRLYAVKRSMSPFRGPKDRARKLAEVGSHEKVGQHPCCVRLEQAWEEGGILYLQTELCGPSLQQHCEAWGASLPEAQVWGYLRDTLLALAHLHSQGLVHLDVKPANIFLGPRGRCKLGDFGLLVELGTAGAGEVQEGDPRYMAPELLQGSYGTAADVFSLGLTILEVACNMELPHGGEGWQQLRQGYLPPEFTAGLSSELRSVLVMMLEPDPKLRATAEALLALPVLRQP
# Procedure, shortened: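 Purified untagged human PKMYT1 75-362 at 15 nM final was tested in HEPES pH 7.5 with MgCl2, EGTA, Brij-35 and 1% DMSO. Intrinsic ATPase activity was measured with 500 uM ATP over 60 min at 26° C. ADP-Glo luminescence was read and IC50 fitted from 10-point, 3-fold dilution curves.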
# WEE1 = molecular target: T2, WEE1 (Homo sapiens, UniProt P30291); assay: Selectivity versus WEE1 assay (ADP-Glo enzymatic assay); assay type: biochemical; details: for IC50: ADP-Glo; for PKMYT1 vs. WEE1 selectivity: fold difference in selectivity for PKMYT1 over WEE1
# T2 construct: purchased Thermo Fisher PR7373A
# Procedure, shortened: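 WEE1 at 15 nM final in 50 mM HEPES pH 7.5, 10 mM MgCl2, 1 mM EGTA, 0.01% Brij-35, 1% DMSO; reaction started with 30 µM ATP, 60 min at 26 °C. ADP-Glo luminescence; IC50 from dose-response curves, replicates within 3-fold and r2 >0.9.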
# OVCAR 3 cells = assay: Cancer cell line proliferation assay, ATP-based cell viability (Cell Titre Glow), OVCAR 3 (CCNE1-amplified); details: KYSE30 (normal CCNE1) GI50 vs. OVCAR 3 (CCNE1-amplified) GI50
# Procedure, shortened: (§1)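 Cells were treated with PKMYT1 inhibitors, then proliferation was assessed with CellTiter-Glo and luminescence read. GI50 values were fitted from the resulting data.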
# KYSE-30 cells = assay: Cancer cell line proliferation assay, ATP-based cell viability (Cell Titre Glow), KYSE-30 (normal CCNE1); details: Homo sapiens, KYSE-30 cells (normal CCNE1), concentration that achieves 50% cell growth proliferation inhibition, read-out: KYSE30 Gl50
# Procedure, shortened: as §1
# [1] = molecular target: T3, Cellular PKMYT1 Biomarker CDK1 pT14 (Homo sapiens, UniProt Q99640); assay: Inhibition of cellular PKMYT1 biomarker CDK1 pT14 in OVCAR 3 cells (immunoblot); assay type: cell-based; details: 20 hours incubation
# T3 construct: read-out CDK1 phospho-T14 immunoblot
# T3 sequence (Q99640 1-499): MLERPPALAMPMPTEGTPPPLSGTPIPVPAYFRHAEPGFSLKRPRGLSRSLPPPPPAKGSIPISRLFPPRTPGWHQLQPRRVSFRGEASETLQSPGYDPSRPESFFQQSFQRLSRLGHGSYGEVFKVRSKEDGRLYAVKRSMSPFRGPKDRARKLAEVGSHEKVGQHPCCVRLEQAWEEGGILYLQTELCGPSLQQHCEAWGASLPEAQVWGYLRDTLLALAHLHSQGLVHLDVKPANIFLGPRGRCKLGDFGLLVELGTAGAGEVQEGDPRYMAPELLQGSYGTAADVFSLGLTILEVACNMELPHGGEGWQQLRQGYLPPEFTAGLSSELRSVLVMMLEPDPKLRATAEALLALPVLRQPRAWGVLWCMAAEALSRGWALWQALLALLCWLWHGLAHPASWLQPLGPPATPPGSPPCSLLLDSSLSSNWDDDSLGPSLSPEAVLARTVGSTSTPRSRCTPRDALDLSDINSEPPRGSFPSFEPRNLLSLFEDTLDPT
# Procedure, shortened: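 Confluent OVCAR 3 cells treated with a compound concentration range for 20 h at 37 °C. Lysates analysed by automated capillary immunoblot for CDK1 phospho-T14, with vinculin, fluorescence detection; IC50 by regression.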
# [2] = 15 nM PKMYT1 kinase domain, 500 µM ATP, 60 minutes at 26° C., banded
# [3] = 15 nM WEE1, 60 minutes at 26° C., banded
# [4] = banded, ">N" = at least in this band but could be higher
# [5] = PKMYT1 kinase domain 15 nM, banded values
# T2 sequence (P30291 whole entry): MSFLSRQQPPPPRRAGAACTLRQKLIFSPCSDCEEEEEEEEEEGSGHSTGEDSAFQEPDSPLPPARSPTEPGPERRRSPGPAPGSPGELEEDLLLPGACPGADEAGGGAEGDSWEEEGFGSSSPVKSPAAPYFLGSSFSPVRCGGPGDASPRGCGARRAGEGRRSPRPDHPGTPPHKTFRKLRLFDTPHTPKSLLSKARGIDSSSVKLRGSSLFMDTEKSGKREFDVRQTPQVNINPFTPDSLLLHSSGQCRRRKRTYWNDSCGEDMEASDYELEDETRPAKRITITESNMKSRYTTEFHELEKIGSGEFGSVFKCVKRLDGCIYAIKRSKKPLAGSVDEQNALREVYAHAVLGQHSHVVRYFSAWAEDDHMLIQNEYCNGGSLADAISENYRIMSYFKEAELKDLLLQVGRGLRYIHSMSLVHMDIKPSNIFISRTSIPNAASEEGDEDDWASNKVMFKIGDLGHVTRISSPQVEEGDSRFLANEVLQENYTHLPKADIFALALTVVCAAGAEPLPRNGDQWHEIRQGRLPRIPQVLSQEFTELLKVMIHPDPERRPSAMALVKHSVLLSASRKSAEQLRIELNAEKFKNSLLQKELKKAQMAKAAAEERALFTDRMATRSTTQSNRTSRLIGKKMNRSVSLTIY
IC50 (Human PKMYT1; [2]) [nM],IC50 (WEE1; [3]) [nM],PKMYT1 vs. WEE1 selectivity (WEE1; [4]),IC50 [1] [nM],IC50 (Human PKMYT1; [5]) [nM],"IC50 (WEE1; WEE1 15 nM, banded values) [nM]",PKMYT1 vs. WEE1 selectivity (WEE1; banded),SMILES,Selectivity ratio KYSE30 Gl50 vs. OVCAR3 Gl50 (OVCAR 3 cells),GI50 (KYSE-30 cells) [nM]
< 50,1000 to 11000,X (100-<1000 fold),< 100,–,–,–,"Cc1cn(-c2cnn(C)c2)nc1Nc1ncc(C(=O)Nc2c(C)ccc(O)c2C)s1 [BAA-385, 2-((1′′,4-dimethyl-1′H-[1,4′-bipyrazol]-3-yl)amino)-N-(3-hydroxy-2,6-dimethylphenyl)thiazole-5-carboxamide]",Y (>20 fold),500 to 5000
< 50,1000 to 11000,X (100-<1000 fold),< 100,–,–,–,"Cc1ccc(O)c(C)c1NC(=O)c1cnc(Nc2cccc(-c3cnn(C)c3)n2)s1 [BAA-390, N-(3-hydroxy-2,6-dimethylphenyl)-2-((6-(1-methyl-1H-pyrazol-4-yl)pyridin-2-yl)amino)thiazole-5-carboxamide]",Y (>20 fold),500 to 5000
< 50,1000 to 11000,X (100-<1000 fold),< 100,–,–,–,"Cc1cn(-c2cnn(C(C)C)c2)nc1Nc1ncc(C(=O)Nc2c(C)ccc(O)c2C)s1 [BAA-391, N-(3-hydroxy-2,6-dimethylphenyl)-2-((1′-isopropyl-4-methyl-1′H-[1,4′-bipyrazol]-3-yl)amino)thiazole-5-carboxamide]",Y (>20 fold),500 to 5000
–,–,–,< 100,< 50,1000 to 11000,X (100-<1000 fold),"Cc1cn(-c2cnn(C(F)F)c2)nc1Nc1ncc(C(=O)Nc2c(C)ccc(O)c2C)s1 [BAA-394, 2-((1′-(difluoromethyl)-4-methyl-1′H-[1,4′-bipyrazol]-3-yl)amino)-N-(3-hydroxy-2,6-dimethylphenyl)thiazole-5-carboxamide]",Y (>20 fold),500 to 5000
–,–,–,< 100,< 50,1000 to 11000,X (100-<1000 fold),"Cc1ccc(-c2cnn(C)c2)nc1Nc1ncc(C(=O)Nc2c(C)ccc(O)c2C)s1 [BAA-396, N-(3-hydroxy-2,6-dimethylphenyl)-2-((3-methyl-6-(1-methyl-1H-pyrazol-4-yl)pyridin-2-yl)amino)thiazole-5-carboxamide]",Y (>20 fold),500 to 5000
–,–,–,< 100,< 50,1000 to 11000,W (10-<100 fold),"Cc1ccc(O)c(C)c1NC(=O)c1cnc(Nc2cccc(-c3cccnc3)n2)s1 [BAA-397, 2-([2,3′-bipyridin]-6-ylamino)-N-(3-hydroxy-2,6-dimethylphenyl)thiazole-5-carboxamide]",Y (>20 fold),500 to 5000
–,–,–,< 100,< 50,1000 to 11000,X (100-<1000 fold),"Cc1cn(-c2ccn(C)n2)nc1Nc1ncc(C(=O)Nc2c(C)ccc(O)c2C)s1 [BAA-398, 2-((1′,4-dimethyl-1′H-[1,3′-bipyrazol]-3-yl)amino)-N-(3-hydroxy-2,6-dimethylphenyl)thiazole-5-carboxamide]",Y (>20 fold),500 to 5000
–,–,–,< 100,< 50,1000 to 11000,W (10-<100 fold),"Cc1ccc(O)c(C)c1NC(=O)c1cnc(Nc2cccc(N(C)CCC#N)n2)s1 [BAA-401, 2-((6-((2-cyanoethyl)(methyl)amino)pyridin-2-yl)amino)-N-(3-hydroxy-2,6-dimethylphenyl)thiazole-5-carboxamide]",Y (>20 fold),500 to 5000
–,–,–,< 100,< 50,50 to 1000,W (10-<100 fold),"Cc1ccc(O)c(C)c1NC(=O)c1cnc(Nc2cc(N3CCOCC3)ccn2)s1 [BAA-402, N-(3-hydroxy-2,6-dimethylphenyl)-2-((4-morpholinopyridin-2-yl)amino)thiazole-5-carboxamide]",Y (>20 fold),500 to 5000
